Source: patent US10889555B2, “Sulfonamide compound or salt thereof” (Taiho Pharmaceutical Co., Ltd., priority 2016, dated 2021)
Where two headings read alike, the source gives them in different places.

What was measured:
HCC 1806 cells = assay: Cell proliferation inhibitory effect on human breast cancer cell line (crystal violet, 72 hours); format: cell-based; conditions: read-out: Cell growth suppression IC50
Method in brief: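 Cells were seeded at 2,000/well in RPMI-1640 with 10% FBS and grown 1 day, then exposed to compound for 72 h at 37° C, 5% CO2. After glutaraldehyde fixation and 0.05% crystal violet staining, extracted dye was read at 540 nm. IC50 (μM) came from growth inhibition relative to untreated and cell-free wells.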

[1] = tested on: various cancer cell lines as described in Table 21; assay: Cell proliferation inhibitory effect on human cancer-derived cancer cell lines (method of Test Example 2); format: cell-based
Description: Human derived breast cancer cell line HCC 1806 cells were daily passaged at a cell density not exceeding 80% in ATCC recommended Roswell Park Memorial Institute medium (RPMI-1640) containing 10% fetal bovine serum (FBS). In order to start the test of cell proliferation inhibitory activity, HCC 1806 cells were suspended in the above medium, after seeing at 180 μL in each well of a 96-well flat bottom plate so that the number of cells per well was 2,000, the cells were cultured at 37° C. for 1 day in an incubator containing 5% carbon dioxide gas. On the next day, the test compound was dissolved in DMSO, and 20 μL of a drug additive solution diluted serially with distilled water to 10 times of the final concentration was added to each well of the culture plate of the cells, and the cells were cultured at 37° C. for 72 hours in an incubator containing 5% carbon dioxide gas. After culturing for 72 hours, 20 μL of glutaraldehyde was added to each well and allowed to stand for 30 minutes, then the plate was washed 10 times with water and was dried. 100 μL of a stain solution (0.05% crystal violet in a 20% methanol solution) was added to each well and allowed to stand for 30 minutes, then the plate was washed 10 times with water and was dried. 100 μL of an extract solution (0.1 N NaH2PO4: 100% ethanol=1:1) was added to each well and mixed, and the mixture was measured at a wavelength of 540 nm using a plate reader (MTP-450 manufactured by Corona Electric Co., Ltd.). The growth inhibition rate was calculated from the following formula, and the concentration (IC50 (μM)) of a test compound inhibiting 50% was determined. Growth inhibition rate (%)={(C−B)−(T−B)}/(C−B)×100
According to the method of Test Example 2, the cell proliferation inhibitory effect on various cancer cell lines as described in Table 21 was evaluated.

[2] = A673, Ewing's sarcoma, 2000 cell/well, read-out: cell proliferation inhibitory effect, A673
[3] = A2780, Ovarian Cancer, 2000 cell/well, read-out: cell proliferation inhibitory effect, A2780
[4] = ACHN, Kidney Cancer, 2000 cell/well, read-out: cell proliferation inhibitory effect, ACHN
[5] = CFPAC-1, Pancreatic Cancer, 2000 cell/well, read-out: cell proliferation inhibitory effect, CFPAC-1
[6] = DU-145, DU145, Prostate Cancer, 5000 cell/well, read-out: cell proliferation inhibitory effect, DU145
[7] = GB-1, Glioblastoma, 3000 cell/well, read-out: cell proliferation inhibitory effect, GB-1
[8] = HCT-116, HCT116, Colorectal Cancer, 1000 cell/well, read-out: cell proliferation inhibitory effect, HCT116
[9] = HLE, Liver Cancer, 3000 cell/well, read-out: cell proliferation inhibitory effect, HLE
[10] = MSTO-211H, Mesothelioma, 6000 cell/well, read-out: cell proliferation inhibitory effect, MSTO-211H
[11] = NCI-H460, Lung Cancer, 1000 cell/well, read-out: cell proliferation inhibitory effect, NCI-H460
[12] = NCI-H2170, Lung Cancer, 5000 cell/well, read-out: cell proliferation inhibitory effect, NCI-H2170
[13] = NCI-H2228, Lung Cancer, 5000 cell/well, read-out: cell proliferation inhibitory effect, NCI-H2228
[14] = NUGC-3, Stomach Cancer, 2000 cell/well, read-out: cell proliferation inhibitory effect, NUGC-3
[15] = RPMI7932, Melanoma, 4000 cell/well, read-out: cell proliferation inhibitory effect, RPMI7932

Compound | IC50 (HCC 1806 cells; Homo sapiens, HCC1806, 72 h) [nM] | IC50 [1, 2] [nM] | IC50 [1, 3] [nM] | IC50 [1, 4] [nM] | IC50 [1, 5] [nM] | IC50 [1, 6] [nM] | IC50 [1, 7] [nM] | IC50 [1, 8] [nM] | IC50 [1, 9] [nM] | IC50 [1, 10] [nM] | IC50 [1, 11] [nM] | IC50 [1, 12] [nM] | IC50 [1, 13] [nM] | IC50 [1, 14] [nM] | IC50 [1, 15] [nM] | IC50 (HCC 1806 cells) [nM]
Cc1c(Br)ccc(F)c1[C@@H](C)[C@H](NS(=O)(=O)c1ccc(Cl)c2c1OCCC2(C)O)c1n[nH]c(=O)o1 (single isomer, unassigned) [Example 222A] |  | 250 | 190 | 170 | 230 | 260 | 460 | 270 | 200 | 270 | 180 | 520 | 480 | 360 | 510 | 60
Cc1c(Cl)ccc(F)c1[C@@H](C)[C@H](NS(=O)(=O)c1ccc(Cl)c2c1OCCC2(C)O)c1n[nH]c(=O)o1 (single isomer, unassigned) [Example 209A] |  | 320 | 300 | 220 | 330 | 310 | 640 | 280 | 260 | 320 | 250 | 570 | 730 | 400 | 720 | 60
[2H]C([2H])([2H])C1(O)CCOc2c(S(=O)(=O)N[C@H](c3n[nH]c(=O)o3)[C@H](C)c3c(F)ccc(Cl)c3C)ccc(Cl)c21 (single isomer, unassigned) [Example 228A] | 140 | 400 | 380 | 320 | 360 | 340 | 850 | 380 | 290 | 370 | 310 | 880 | 740 | 510 | 650 | 
Cc1c(Cl)ccc(F)c1[C@@H](C)[C@H](NS(=O)(=O)c1ccc(Cl)c2c1OCCC2O)c1n[nH]c(=O)o1 (single isomer, unassigned) [Example 238A] | 440 |  |  |  |  |  |  |  |  |  |  |  |  |  |  | 
CC(=O)OC1(C(F)(F)F)CCOc2c(S(=O)(=O)N[C@H](c3n[nH]c(=O)o3)[C@H](C)c3c(F)ccc(C)c3C)ccc(Cl)c21 (stereo partly drawn) [Example 123, 5-chloro-8-(N-((1S,2R)-2-(6-fluoro-2,3-dimethylphenyl)-1-(5-oxo-4,5-dihydro-1,3,4-oxadiazol-2-yl)propyl)sulfamoyl)-4-(trifluoromethyl)chroman-4-yl acetate] | 170 |  |  |  |  |  |  |  |  |  |  |  |  |  |  | 
[2H]C([2H])([2H])C1(O)CCOc2c(S(=O)(=O)N[C@H](c3n[nH]c(=O)o3)[C@H](C)c3c(F)ccc(C)c3C)ccc(Cl)c21 (single isomer, unassigned) [Example 200B] |  |  |  |  |  |  |  |  |  |  |  |  |  |  |  | 460
Cc1ccc(F)c([C@@H](C)[C@H](NS(=O)(=O)c2cc3c(cc2C(N)=O)OCCO3)c2n[nH]c(=O)o2)c1C [Example 261, 7-(N-((1S,2R)-2-(6-fluoro-2,3-dimethylphenyl)-1-(5-oxo-4,5-dihydro-1,3,4-oxadiazol-2-yl)propyl)sulfamoyl)-2,3-dihydrobenzo[b][1,4]dioxin-6-carboxamide] | 720 |  |  |  |  |  |  |  |  |  |  |  |  |  |  | 
CC(=O)NC1CCOc2c(S(=O)(=O)N[C@H](c3n[nH]c(=O)o3)[C@H](C)c3c(F)ccc(C)c3C)ccc(Cl)c21 (stereo partly drawn) [Example 157, N-(5-chloro-8-(N-((1S,2R)-2-(6-fluoro-2,3-dimethylphenyl)-1-(5-oxo-4,5-dihydro-1,3,4-oxadiazol-2-yl)propyl)sulfamoyl)chroman-4-yl)acetamide] | 370 |  |  |  |  |  |  |  |  |  |  |  |  |  |  | 
COc1c(S(=O)(=O)N[C@H](c2n[nH]c(=O)o2)[C@H](C)c2c(F)ccc(C)c2C)ccc(Cl)c1C(C)O (single isomer, unassigned) [Example 208B] |  |  |  |  |  |  |  |  |  |  |  |  |  |  |  | 50
Cc1ccc(F)c([C@@H](C)[C@H](NS(=O)(=O)c2ccc(Cl)c3c2OCCC3(C)O)c2n[nH]c(=O)o2)c1C (single isomer, unassigned) [Example 207B] |  |  |  |  |  |  |  |  |  |  |  |  |  |  |  | 250
Cc1ccc(F)c([C@@H](C)[C@H](NS(=O)(=O)c2ccc(Cl)c3c2OCC(=O)N3CCO)c2n[nH]c(=O)o2)c1C [Example 273, 5-chloro-N-((1S,2R)-2-(6-fluoro-2,3-dimethylphenyl)-1-(5-oxo-4,5-dihydro-1,3,4-oxadiazol-2-yl)propyl)-4-(2-hydroxyethyl)-3-oxo-3,4-dihydro-2H-benzo[b][1,4]oxazine-8-sulfonamide] | 810 |  |  |  |  |  |  |  |  |  |  |  |  |  |  | 
Cc1c(Cl)ccc(F)c1[C@@H](C)[C@H](NS(=O)(=O)c1ccc(Cl)c2c1OCCC2(C)N)c1n[nH]c(=O)o1 (single isomer, unassigned) [Example 330A] | 240 |  |  |  |  |  |  |  |  |  |  |  |  |  |  | 
CCc1ccc(F)c([C@@H](C)[C@H](NS(=O)(=O)c2ccc(Cl)c3c2OCCC3O)c2n[nH]c(=O)o2)c1C (single isomer, unassigned) [Example 239A] | 720 |  |  |  |  |  |  |  |  |  |  |  |  |  |  | 

Continued, in another order:

IC50 (HCC 1806 cells; Homo sapiens, HCC1806, 72 h) [nM] | Compound | IC50 [1, 2] [nM] | IC50 [1, 3] [nM] | IC50 [1, 4] [nM] | IC50 [1, 5] [nM] | IC50 [1, 6] [nM] | IC50 [1, 7] [nM] | IC50 [1, 8] [nM] | IC50 [1, 9] [nM] | IC50 [1, 10] [nM] | IC50 [1, 11] [nM] | IC50 [1, 12] [nM] | IC50 [1, 13] [nM] | IC50 [1, 14] [nM] | IC50 [1, 15] [nM] | IC50 (HCC 1806 cells) [nM]
200 | Cc1ccc(F)c([C@@H](C)[C@H](NS(=O)(=O)c2ccc(Cl)cc2C(N)=O)c2n[nH]c(=O)o2)c1C [Example 5] | 1090 | 830 | 750 | 940 | 1040 | 1570 | 910 | 790 | 700 | 730 | 1890 | 1270 | 1220 | 2670 | 
560 | Cc1c(Cl)ccc(F)c1[C@@H](C)[C@H](NS(=O)(=O)c1ccc(Cl)cc1C(N)=O)c1n[nH]c(=O)o1 [Example 14, 5-chloro-2-(N-((1S,2R)-2-(3 chloro-6-fluoro-2-methylphenyl)-1-(5oxo-4,5-dihydro-1,3,4-oxadiazol-2-yl)propyl)sulfamoyl)benzamide] | 1850 | 1710 | 980 | 1420 | 2220 | 4600 | 2200 | 1300 | 1580 | 1350 | 4180 | 3530 | 2830 | 3210 | 
640 | CCc1ccc(F)c([C@@H](C)[C@H](NS(=O)(=O)c2ccc(Cl)cc2C(N)=O)c2n[nH]c(=O)o2)c1C [Example 11, 5-chloro-2-(N-((1S,2R)-2-(3-ethyl-6-fluoro-2-methylphenyl)-1-(5-oxo-4,5-dihydro-1,3,4-oxadiazol-2-yl)propyl)sulfamoyl)benzamide] | 2560 | 2080 | 1500 | 1710 | 1840 | 5220 | 2300 | 1740 | 1540 | 1500 | 3900 | 3210 | 3110 | 4740 | 
410 | Cc1ccc(F)c([C@@H](C)[C@H](NS(=O)(=O)c2cc(C(C)(C)O)ccc2C(N)=O)c2n[nH]c(=O)o2)c1C [Example 197, 2-(N-((1S,2R)-2-(6-fluoro-2,3-dimethylphenyl)-1-(5-oxo-4,5-dihydro-1,3,4-oxadiazol-2-yl)propyl)sulfamoyl)-4-(2-hydroxypropan-2-yl)benzamide] |  |  |  |  |  |  |  |  |  |  |  |  |  |  | 
650 | CC(=O)c1cc(Cl)ccc1S(=O)(=O)N[C@H](c1n[nH]c(=O)o1)[C@H](C)c1c(F)ccc(C)c1C [Example 147, 2-acetyl-4-chloro-N-((1S,2R)-2-(6-fluoro-2,3-dimethylphenyl)-1-(5 oxo-4,5-dihydro-1,3,4-oxadiazol-2-yl)propyl)benzenesulfonamide] |  |  |  |  |  |  |  |  |  |  |  |  |  |  | 
